# Data: patent US6890954B1, “Uses of 2-bromopalmitate in the treatment of autoimmune disease” (priority 1999, dated 2005)
# Legend:
# Assay type in all cases: cell-based
# Vav = assay: CD3-mediated tyrosine phosphorylation of Vav in Jurkat cells; conditions: 100 μM 3 hours, OKT3
# Description: (§1) Jurkat T cells (2×10^6−1×10^7) were centrifuged at 1,000×g for 5 minutes, rinsed with RPMI, resuspended in RPMI supplemented with 2% dialyzed FBS, 0.5% defatted BSA, and incubated with or without 100 μM 2-bromopalmitate at 8×10^5 cells/ml for 3 hours. The cells were centrifuged, washed with RPMI and resuspended in RPMI at 1×10^7−1×10^8 cells/ml. The cells were then activated with anti-CD3 OKT3 mAb (0.3 mg/ml) for 3 min at 37° C., quickly spun down, washed once with cold RPMI and once with cold STE, and lysed in RIPA Samples were solubilized in 1× sample buffer containing 5% β-mercaptoethanol and subjected to SDS-PAGE, followed by immunoblotting with anti-phosphotyrosine antibody (PY99). For analysis of specific proteins, RIPA lysates were immunoprecipitated with the specific antibodies O/N, and immunoblotted for phosphotyrosine. Alternatively, proteins were immunoprecipitated with agarose-conjugated anti phosphotyrosine antibody and blotted for the specific proteins.
# (§2) In order to identify the individual proteins whose tyrosine phosphorylation is affected by 2-bromopalmitate, lysates were immunoprecipitated with a panel of specific antibodies, and immunoblotted for phosphotyrosine. Alternatively, lysates were immunoprecipitated with an antiphosphotyrosine antibody, and blotted with antibodies to specific proteins.
# Fyn = target: T1, Fyn (Homo sapiens, UniProt P06241); assay: Fyn fatty acylation (IC13/IC16 incorporation) in transfected COS-1 cells; conditions: COS-1 cells, 100 μM 2-bromopalmitate, normalized for total protein levels
# T1 construct: expressed in transfected cells; host or cells: COS-1
# Description: The syntheses of 13-[^125I]-iodotridecanoic acid (IC13)or 16-[^125I]-iodohexanoic acid (IC16) were carried out as described previously (39). Cell labeling was carried out as described (12,13) with modifications. Briefly, each 60 mm plate of Fyn transfected COS-1 cells was incubated O/N in DMEM containing 2.5% FBS, 0.5% defatted BSA (Sigma) with or without 100 μM 2-bromopalmitate or 50 μM polyunsaturated fatty acid. Prior to labeling, the cells were incubated for 1 hr with 1 ml of DMEM containing 2% dialyzed FBS, then labeled for 4 hours with 25-50 μCi IC13 or IC16 in DMEM containing 2% dialyzed FBS, 0.5% defatted BSA with or without 2-bromopalmitate or polyunsaturated fatty acid. Labeled cells were washed three times with cold STE (100 mM NaCl, 10 mM Tris pH 7.4, 1 mM EDTA) and lysed in 0.6 ml of cold RIPA buffer containing protease inhibitors (10 μg/ml each of benzamidine, AEBSF, TPCK and TLCK, 1.5 μg/ml each of Leupeptin, Pepstatin A and Aprotinin). Lysates were clarified at 100,000×g for 15 min at 4° C. in a Beckman TL-100 ultracentrifuge. Lysates were immunoprecipitated with rabbit anti-Fyn antibody and protein A-agarose. Immunoprecipitates were washed three times with cold RIPA buffer and suspended in 1× sample buffer containing 100 mM dithiothreitol and subjected to SDS-PAGE. Gels were dried between cellophane and analyzed by phosphorimaging after 12-36 hours exposure. Experiments in Jurkat T cells were carried out according to the above protocol using 2×10^7 cells per experiment, and reducing the incubation time with 2-bromopalmitate to 3-4 hours.
# A number of palmitic acid analogs were screened for their ability to inhibit Fyn palmitoylation. COS-1 cells were transfected with cDNA encoding Fyn. Three days after transfection, the cells were labeled with either [^35S]-methionine, 13-[^125I]-iodotridecanoic acid (IC13), an iodinated myristate analog, or 16-[^125I]-iodohexanoic acid (IC16), an iodinated palmitic acid analog (39), in the presence or absence of nonradioactive palmitate analogs. Cells were lysed, immunoprecipitated with anti-Fyn antibody, and analyzed by SDS-PAGE and phosphorimaging. […] When normalized for total protein levels, 70% of Fyn myristoylation and over 90% of Fyn palmitoylation was inhibited in the presence of 2-bromopalmitate. Treatment of cells with other analogs, including 2-hydroxypalmitate, palmitoleic acid and 16-hydroxypalmitate had no effect (data not shown).
# To test this hypothesis, Fyn transfected COS-1 cells were incubated O/N with or without 50 μM arachidonic acid (20:4) or eicosapentaenoic acid (20:5), then labeled with IC13 or IC16. Total protein levels were monitored by immunoblotting aliquots of each sample with anti-Fyn antibody (FIG. 8A, lower panel).
# PLC-γl = assay: CD3-mediated tyrosine phosphorylation of PLC-γl in Jurkat cells; conditions: 100 μM 3 hours, OKT3
# Description: as §1, §2
# T1 sequence (P06241 whole entry, species assumed): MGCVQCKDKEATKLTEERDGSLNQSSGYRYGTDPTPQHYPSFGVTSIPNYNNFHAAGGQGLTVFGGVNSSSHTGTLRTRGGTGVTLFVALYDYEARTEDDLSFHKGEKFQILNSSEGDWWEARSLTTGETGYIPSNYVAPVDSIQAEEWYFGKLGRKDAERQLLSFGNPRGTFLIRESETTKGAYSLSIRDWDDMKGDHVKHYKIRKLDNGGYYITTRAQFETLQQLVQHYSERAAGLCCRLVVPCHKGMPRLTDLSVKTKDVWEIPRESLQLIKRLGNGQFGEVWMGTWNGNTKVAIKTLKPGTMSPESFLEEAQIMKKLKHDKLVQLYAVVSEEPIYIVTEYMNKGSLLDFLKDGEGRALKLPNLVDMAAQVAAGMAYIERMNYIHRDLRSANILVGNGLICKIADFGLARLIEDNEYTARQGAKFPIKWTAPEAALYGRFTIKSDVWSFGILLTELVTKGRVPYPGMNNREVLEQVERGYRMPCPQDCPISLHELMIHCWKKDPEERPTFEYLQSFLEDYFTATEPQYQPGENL
smiles,measurement,setting,value
CCCCCCCCCCCCCCC(Br)C(=O)O (stereo not shown) [2-bromopalmitate],Vav phosphorylation inhibited,Vav,40%
same,Fyn myristoylation inhibited,Fyn; IC13 label,70%
same,Fyn palmitoylation inhibited,Fyn; IC16 label,over 90%
same,PLC-γl phosphorylation inhibited,PLC-γl,70%
